Where a name gives a salt, the structure may show the parent alone.

The subject of data set [1] is blastic cells from AML patients. In words: Inhibition of viability of fresh leukemic cells (trypan blue exclusion). It counts as cell-based, human. The following applies: day 3; for In Vitro Percent Inhibition of Viability, MEAN: MEAN over AML patients. How it is done: Samples for AML 1 through 5, AML 1 being the least and AML 5 being the most differentiated, were obtained. […] Cells were incubated with or without […] anti-histamine derivatives. Polaramine was included as a negative control. Cell counts were assessed by trypan blue exclusion test at day 3 after the incubation. Morphological analysis was performed using Wright-Giemsa staining on cytocentrifuge preparations. The results were expressed as % inhibition of growth as compared to negative control.

For data set [2], the system named is K562, U937, Jurkat, T47-D, MCF7, BT20 and 184B5 cell lines. In words: Cytotoxicity in malignant and immortalized cell lines (manual counting, Alamar assay). To be noted: all of the cell lines tested. It counts as cell-based. How it is done: These four compounds were added at different concentrations to cultures of various malignant cell lines and normal cells. The cell lines used for these tests were the following:
All leukemic cell lines were grown and used in logarithmic phase. After one day of treatment, the cells were isolated, counted and diluted in a regular growth medium to provide the cell density of about 75×10^3 cells/ml for reading on plates at 48 hours after the treatment, and […] for reading at 144 hours after the treatment.
Several dilutions of each compound tested were added to the wells (12 wells per plate, TPP), and 1 ml of cells from the parent solution was added per well after a line had been completed. The dilutions were made using the culture medium, and following dilutions were tested: control, which contained no compound of this invention; 1:100; 1:1,000; 1:2,000; 1:5,000; and 1:10,000. The starting concentrations for these dilutions were: 50 mg/ml for compound A; 10 mg/ml for compound B; 25 mg/ml for compound C; and 5 mg/ml for compound D. The results were analyzed by manual counting and Alamar reduced assay.
The cells were grown on their respective propagation medium and seeded 24 hours before the compounds are added. The cells were trypsinized, and 50,000 cells/well and 10,000 cells/well were seeded in order to read the plates at 48 hours and 144 hours after being treated by the compounds, respectively.
On the day of the treatment, the medium was replaced by 10 ml each of series dilution of the compounds, consisting of: control, which contained no compound of this invention; 1:100 dilution; 1:1,000 dilution; 1:2,000 dilution; and 1:5,000 dilution. The starting concentrations for these dilutions were: 50 mg/ml for compound A; 10 mg/ml for compound B; 25 mg/ml for compound C; and 5 mg/ml for compound D. The dilution was made using the growth medium.
A tested compound is regarded as being active in cytotoxicity where the percentage of surviving cells after the treatment with the compound is less than 30%.

Data set [3] relates to K562, U937, MDA-DB231, BT20 and MCF7 cell lines. In words: Cytotoxic effects in multi-well plate, 6 days, ATP level (CellTiter-Glo). The following applies: 2x10^-9 M to 2x10^-4 M. How it is done:
In order to test the cytotoxic effects of various compounds, a test was developed in a multi-well plate. Two leukemic cell lines, namely K562 and U937, and three breast cancer cell lines, namely MDA-DB231, BT20 and MCF7 were used for this test.
The cells were seeded at low density and were left for 24 hours to recover and reach a new logarithmic phase of growth. Various concentrations of the compounds being tested, ranging from 2×10^−9 M to 2×10^−4 M, were added in triplicate. The mixture was incubated for 6 days, during which approximately 4 doublings of the cell population occurred, to allow the cells to reach subconfluence.
The viability of the cultured cells after the treatment by the compounds was determined by quantifying the level of ATP since the level of ATP is directly proportional to the number of viable cells present in the culture. The ATP level was quantified by using CellTiter-Glo™ (Promega) luminescent test for cell viability.

`CN(C)CC[C@@H](c1ccc(Cl)cc1)c1ccccn1` [D, dexchlorpheniramine maleate]: the cytotoxicity at 10 µM in data set [1] (Homo sapiens, 72 h, patient ID 14, FAB AML5, 10^-5 M, read-out: In Vitro Percent Inhibition of Viability) is 9%. The cytotoxic activity entry in data set [2] was “little or no cytotoxic activity”.

For `OCCN1CCN(CC/C=C2/c3ccccc3Sc3ccc(C(F)(F)F)cc32)CC1` [i41, flupentixol], the “In Vitro Percent Inhibition of Viability, MEAN” value in data set [1] (10^-5 M) worked out at 50%; in data set [1] (10^-6 M), 24%. The “In Vitro Percent Inhibition of Viability” value in data set [1] (patient ID 1, FAB AML1, 10^-5 M) came to 20%; in data set [1] (patient ID 1, FAB AML1, 10^-6 M), 25%; in data set [1] (patient ID 2, FAB AML1, 10^-5 M), 30%; in data set [1] (patient ID 2, FAB AML1, 10^-6 M), 0%; in data set [1] (patient ID 3, FAB AML2, 10^-5 M) it was 68%; in data set [1] (patient ID 3, FAB AML2, 10^-6 M), 34%. Further, the “In Vitro Percent Inhibition of Viability” value came to 38% in data set [1] (patient ID 4, FAB AML2, 10^-5 M); 35% in data set [1] (patient ID 4, FAB AML2, 10^-6 M); 40% in data set [1] (patient ID 5, FAB AML2, 10^-5 M); 1% in data set [1] (patient ID 5, FAB AML2, 10^-6 M); 85% in data set [1] (patient ID 6, FAB AML3, 10^-5 M); 24% in data set [1] (patient ID 6, FAB AML3, 10^-6 M). The “In Vitro Percent Inhibition of Viability” value is on record as 50% in data set [1] (patient ID 7, FAB AML3, 10^-5 M); 30% in data set [1] (patient ID 7, FAB AML3, 10^-6 M); 46% in data set [1] (patient ID 8, FAB AML3, 10^-5 M); 38% in data set [1] (patient ID 8, FAB AML3, 10^-6 M); 97% in data set [1] (patient ID 9, FAB AML3, 10^-5 M); 23% in data set [1] (patient ID 9, FAB AML3, 10^-6 M). The “In Vitro Percent Inhibition of Viability” value stood at 55% in data set [1] (patient ID 10, FAB AML4, 10^-5 M); 33% in data set [1] (patient ID 10, FAB AML4, 10^-6 M); 75% in data set [1] (patient ID 11, FAB AML5, 10^-5 M); 36% in data set [1] (patient ID 11, FAB AML5, 10^-6 M); 55% in data set [1] (patient ID 12, FAB AML5, 10^-5 M); 40% in data set [1] (patient ID 13, FAB AML5, 10^-5 M). Also, the “In Vitro Percent Inhibition of Viability” value is given as 24% in data set [1] (patient ID 13, FAB AML5, 10^-6 M); 25% in data set [1] (patient ID 14, FAB AML5, 10^-5 M); 23% in data set [1] (patient ID 14, FAB AML5, 10^-6 M); 27% in data set [1] (patient ID 15, FAB AML5, 10^-5 M); 16% in data set [1] (patient ID 15, FAB AML5, 10^-6 M). Moreover, in data set [3], the cytotoxic effect group result is recorded as “I”.

For the origin of these results see patent US20040072824A1, “Methods and compositions for the treatment of cancer” (priority 2001, published 2004).
